IC50 data for six compounds are collected here from US6479487B1, “6, 9-disubstituted 2-[trans-(4-aminocyclohexyl)amino] purines” (Aventis Pharmaceuticals Inc., priority 1998, dated 2002).

One assay has as its system PC-3. Put plainly: In vitro tumor cell proliferation, PC-3. The assay is classed as cell-based, human. As to conditions: many values given with an undefined *, read-out: In vitro Tumor Cell Proliferation (IC50, μM) Prostate PC-3. The procedure: (§1) The proliferation of tumor cells was measured using a sulforhodamine B assay as described in Skehan, P., et al., J. Natl. Cancer Inst. […] Tumor cells were harvested with trypsin-EDTA, cells that excluded trypan blue were counted, added to 96-well plates and incubated overnight at 37° C. Drug was added to the wells following dilution in culture medium. Three days later, the medium was removed and replenished with medium containing fresh drug and incubated an additional 4 days. The cells were then fixed with 0.1 ml 10% trichloroacetic acid for 60 min at 4° C. The plates were rinsed five times with tap water, air-dried and stained for 30 min with 0.4% sulforhodamine B in 1% acetic acid and air-dried.
(§2) Alternatively, the CyQUANT cell proliferation assay was used to quantitate cell proliferation.
(§3) Alternatively, the CyQUANT cell proliferation assay was used to quantify tumor cell proliferation. Tumor cells were harvested with trypsin-EDTA, cells that excluded trypan blue were counted, added to 96-well plates and incubated overnight at 37° C. Drug was added to the wells following dilution in culture medium. Three days later the medium was removed and the plates frozen at −80° C. for at least 30 minutes.

The next assay has as its target T1, cdk2/cyclin E (Homo sapiens, UniProt P24941).
T1 construct: made in house; host or cells: insect cells (baculovirus co-infection)
In words: Cyclin-Dependent Kinase 2 Assay (cdk2/cyclin E, GST-Rb substrate). The class given is biochemical. As to conditions: recombinant cdk2/cyclin E, 10 μM ATP, 30 min at 30° C., several values in a cell = separate determinations, read-out: CDK-2 Inhibition IC50. The procedure:
Substrate: GST-Rb as described above for cdk4/cyclin D1
Assay conditions for cdk2/cyclin E were identical to those for cdk4/cyclin D1 including the substrate. The concentration of recombinant cdk2/cyclin E in the assay was 0.1 μg per 100 μl assay. Incubation was for 30 min at 30° C.

Another assay has as its system DMS-114. Put plainly: In vitro tumor cell proliferation, DMS-114. The assay is classed as cell-based, human. As to conditions: many values given with an undefined *, read-out: In vitro Tumor Cell Proliferation (IC50, μM) Lung DMS-114. Here is the method:
DMS-1 14: human small cell lung carcinoma;
as §1, §2, §3

For another assay, the system named is Colo-205. In words: In vitro tumor cell proliferation, Colo-205. The assay is classed as cell-based. Conditions: values given with an undefined *, read-out: In vitro Tumor Cell Proliferation (IC50, μM) Colon Colo-205. Here is the method:
as §1, §2, §3

For the next assay, the system named is DU145. In words: In vitro tumor cell proliferation, DU145. The class given is cell-based, human. As to conditions: many values given with an undefined *, read-out: In vitro Tumor Cell Proliferation (IC50, μM) Prostate DU145. Here is the method:
as §1, §2, §3

In the next assay the target is T2, cdk4/cyclin D1 (Homo sapiens, UniProt P11802).
T2 construct: made in house; host or cells: Sf9 insect cells (Bac-to-Bac baculovirus, pFastBac)
T2 sequence (P11802 whole entry): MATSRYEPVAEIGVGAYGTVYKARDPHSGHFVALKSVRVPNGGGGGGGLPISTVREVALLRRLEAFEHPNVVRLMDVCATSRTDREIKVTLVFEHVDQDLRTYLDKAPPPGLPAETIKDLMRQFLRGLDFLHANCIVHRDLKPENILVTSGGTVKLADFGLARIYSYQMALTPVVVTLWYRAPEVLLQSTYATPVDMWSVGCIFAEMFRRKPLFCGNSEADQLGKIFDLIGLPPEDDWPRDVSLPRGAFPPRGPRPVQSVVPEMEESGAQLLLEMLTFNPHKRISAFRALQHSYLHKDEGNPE
T2 sequence (P24385 whole entry partner): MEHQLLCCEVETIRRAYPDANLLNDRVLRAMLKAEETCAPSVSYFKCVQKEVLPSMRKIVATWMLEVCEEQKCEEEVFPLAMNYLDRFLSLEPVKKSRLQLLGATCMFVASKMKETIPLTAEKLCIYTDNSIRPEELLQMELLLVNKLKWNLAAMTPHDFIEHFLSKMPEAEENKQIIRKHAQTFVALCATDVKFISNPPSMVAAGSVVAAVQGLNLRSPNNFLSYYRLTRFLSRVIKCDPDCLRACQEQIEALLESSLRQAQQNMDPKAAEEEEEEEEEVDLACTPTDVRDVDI
In words: Cyclin-dependent Kinase 4 Assay (cdk4/cyclin D1, GST-Rb substrate). The class given is biochemical. Conditions: cdk4/cyclin D1 insect cell lysate, 10 μM ATP, 30 min at 37° C., several values = separate determinations, read-out: CDK4 Inhibition IC50. Here is the method: The IC50 values for cdk4 inhibition were by the following method:
The transformed bacteria were grown overnight to saturation, then diluted in YT broth and incubated at 37° C. for 2 h. The protein was induced by incubation with 0.1 mM isopropylthioglycoside for 3 h. Following sedimentation by centrifugation, the cells were lysed by sonication in STE buffer ([…] NaCl, 10 mM Tris, pH 8.0, 1 mM EDTA) containing 10% sarkosyl. Particulate matter was removed by centrifugation and the lysate was incubated with glutathione-Sepharose at 4° C. The beads were washed with kinase buffer and then quantitation of Coomassie blue-stained proteins separated by SDS-PAGE was performed using a protein standard of known concentration.
The cDNA for human cyclin D1 was cloned by RT PCR using […] from MCF-7 cells. […] Bacmid DNA was used to transfect Sf9 insect cells to produce recombinant virus. Following plaque purification of the virus, the viral preparations were amplified until high titer stocks were acheived.
Lysates were prepared by lysis of Sf9 cells coinfected with cdk4 and cyclin D1 in 50 mM HEPES, pH 7.5, 10 mM MgCl2, 1 mM DTT, 0.1 mM phenylmethylsulfonyl fluoride, 5 μg/ml aprotinin, and 5 μg/ml leupeptin using a PARR bomb under 500 p.s.i nitrogen pressure for 5 min at 4° C. Insoluble material was sedimented at 10,000×g for 20 min at 4° C. Glycerol was added to the supernatant to 10% and stored at −80° C. in aliquots.
Pre-wet Millipore Multiscreen 96-well filter plates (0.65 μm Durapore filters) with 200 μl kinase buffer (50 mM HEPES, pH 7.5, 10 mM MgCl2, 1 mM EGTA). GST-Rb (0.5 μg) bound to glutathione-Sepharose beads is added in 50 μl per well and the solution removed by application of vacuum. […] Add 0.1 μg cdk4/cyclin D1 (insect cell lysate) to initiate assay. Incubate 30 min at 37° C. Terminate reaction by filtration on Millipore Vacuum Manifold. Wash four times with TNEN (20 mM Tris, pH 8.0, 100 mM Na Cl, 1 mM EDTA, 0.5% nonidet P-40). After drying the plates at room temperature, the filter plates were placed in adapter plates (Packard) and 40 μl of Microscint-O® (Packard) was added to each well. Top Seal A film was used to cover the plates before counting in a Top Count Scintillation Counter.

Another assay concerns HT-29. Put plainly: In vitro tumor cell proliferation, HT-29. Conditions: many values given with an undefined *, read-out: In vitro Tumor Cell Proliferation (IC50, μM) Colon HT-29. The class given is cell-based, human. Here is the method:
as §1, §2, §3
HT-29 is a human colon adenocarcinoma, moderately well-differentiated grade II (HTB 38);

In the next assay the test system is A549. Put plainly: In vitro tumor cell proliferation, A549. The class given is cell-based, human. Conditions: many values given with an undefined *, read-out: In vitro Tumor Cell Proliferation (IC50, μM) Lung A549. Here is the method:
as §1, §2, §3

A further assay relates to MDA-MB-231. Put plainly: In vitro tumor cell proliferation, MDA-MB-231. The assay is classed as cell-based, human. As to conditions: sulforhodamine B or CyQUANT assay, many values given with an undefined *, read-out: In vitro Tumor Cell Proliferation (IC50, μM) Breast MDA-MB-231. The procedure:
as §1, §2, §3
MDA-MB-23 1 is a human breast adenocarcinoma, hormone-independent (HTB 26);

The test system of another assay is MDA-MB-435. In words: In vitro tumor cell proliferation, MDA-MB-435. The assay is classed as cell-based. As to conditions: values given with an undefined *, read-out: In vitro Tumor Cell Proliferation (IC50, μM) Breast MDA-MB-435. The procedure:
as §1, §2, §3

[1] abbreviates: Homo sapiens, COLO 205, Colo-205.
Where [2] appears, read: Homo sapiens, MDA-MB-231, MDA-MB-231.
Setting [3] is: Homo sapiens, MDA-MB-435, MDA-MB-435.

Structures are written as SMILES. “And” between values parts separate entries of the source, which are not always exact repeats. Identical values can stand only once. Counter-ions that a name gives are not always drawn. Like-named read-outs stand apart in the source and are kept apart here.

`N[C@H]1CC[C@H](Nc2nc(NCC3CCC(CO)CC3)c3ncn(C4CCCC4)c3n2)CC1` (stereo partly drawn) [Example 10, 2-[Trans-(4-aminocyclohexyl)amino]-6-[4-(hydroxymethyl)cyclohexanemethylamino]-9-cyclopentylpurine dihydrochloride]: the IC50 is 1.1 µM with PC-3 (Homo sapiens, PC-3, PC-3); 1 µM in the assay with PC-3 (PC-3, dihydrochloride); 16 nM and 13 nM at cdk2/cyclin E; 1.4 µM in the assay on DMS-114 (DMS-114, dihydrochloride); 1.5 µM in the assay on DMS-114 (Homo sapiens, DMS-114, DMS-114); 2.6 µM with Colo-205 (Colo-205, dihydrochloride). Further, the IC50 in the assay with Colo-205 (setting [1]) amounted to 1.3 µM; in the assay on DU145 (DU145, dihydrochloride), 2.6 µM; with DU145 (Homo sapiens, DU-145, DU145), 1.3 µM; at cdk4/cyclin D1, 1600 nM; with HT-29 (HT-29, dihydrochloride) it was 1.7 µM; with HT-29 (Homo sapiens, HT-29, HT-29) it was 1.6 µM. Moreover, the IC50 in the assay on A549 (A549, dihydrochloride) worked out at 2.6 µM; in the assay with A549 (Homo sapiens, A549, A549), 1.3 µM.
Consider `COc1ccc(CCNc2nc(N[C@H]3CC[C@H](N)CC3)nc3c2ncn3C2CCCC2)cc1` [Example 14, 2-[Trans-(4-aminocyclohexyl)amino]-6-[2-(4-methoxyphenyl)ethylamino]-9-cyclopentylpurine dihydrochloride], for which the IC50 with PC-3 (Homo sapiens, PC-3, PC-3) came to 2.3 µM; at cdk2/cyclin E, 100 nM; in the assay on DMS-114 (Homo sapiens, DMS-114, DMS-114), 1.3 µM; in the assay on Colo-205 (setting [1]) it was 2.4 µM; with DU145 (Homo sapiens, DU-145, DU145), 2.8 µM; at cdk4/cyclin D1, 1500 nM. The IC50 in the assay on HT-29 (Homo sapiens, HT-29, HT-29) amounted to 2.7 µM; with MDA-MB-231 (setting [2]), 3 µM; in the assay with A549 (Homo sapiens, A549, A549) it was 1.4 µM.
Turning to `COc1ccc(CNc2nc(N[C@H]3CC[C@H](N)CC3)nc3c2ncn3C(C)C)cc1OC` [Example 19, 2-[Trans-(4-aminocyclohexyl)amino]-6-[(3.4-dimethoxybenzyl)amino]-9-(2-propyl)purine dihydrochloride], the IC50 on cdk2/cyclin E was determined as 540 nM; with DMS-114 (DMS-114, dihydrochloride) it was 15 µM; with DMS-114 (Homo sapiens, DMS-114, DMS-114) it was 12 µM; in the assay on MDA-MB-435 (setting [3]), 20 µM; with Colo-205 (Colo-205, dihydrochloride), 10 µM; in the assay with Colo-205 (setting [1]), 12 µM. In addition, the IC50 at cdk4/cyclin D1 stood at 20000 nM; in the assay with MDA-MB-231 (setting [2]), 15 µM; in the assay on A549 (Homo sapiens, A549, A549) it was 22 µM.
For `COCCCNc1nc(N[C@H]2CC[C@H](N)CC2)nc2c1ncn2C1CCCC1` [Example 22, 2-[Trans-(4-aminocyclohexyl)amino]-6-(3-methoxypropylamino)-9-cyclopentylpurine dihydrochloride], the IC50 was found to be 2.5 µM in the assay on PC-3 (Homo sapiens, PC-3, PC-3); 2.3 µM in the assay with PC-3 (PC-3, dihydrochloride); 370 nM on cdk2/cyclin E; 2.8 µM in the assay with DMS-114 (DMS-114, dihydrochloride); 2.7 µM with DMS-114 (Homo sapiens, DMS-114, DMS-114); 10 µM with MDA-MB-435 (setting [3]). The IC50 with MDA-MB-435 (MDA-MB-435, dihydrochloride) is 11 µM; in the assay with Colo-205 (Colo-205, dihydrochloride), 5.3 µM; in the assay with Colo-205 (setting [1]) it was 3.9 µM; on cdk4/cyclin D1 it was 400 nM and 1300 nM and 570 nM; in the assay with HT-29 (HT-29, dihydrochloride), 4.4 µM; with HT-29 (Homo sapiens, HT-29, HT-29), 4 µM. Besides, the IC50 in the assay with MDA-MB-231 (setting [2]) was 4.2 µM; in the assay on MDA-MB-231 (MDA-MB-231, dihydrochloride), 8.2 µM.
Regarding `N[C@H]1CC[C@H](Nc2nc(NCCOCCO)c3ncn(C4CCCC4)c3n2)CC1` [Example 26, 2-[Trans-(4-aminocyclohexyl)amino]-6-(2-hydroxyethoxyethylamino)-9-cyclopentylpurine dihydrochloride], the IC50 stood at 15 µM in the assay with PC-3 (Homo sapiens, PC-3, PC-3); 8 µM in the assay with PC-3 (PC-3, dihydrochloride); 110 nM on cdk2/cyclin E; 15 µM in the assay on DMS-114 (DMS-114, dihydrochloride); 17 µM in the assay with DMS-114 (Homo sapiens, DMS-114, DMS-114); 23 µM in the assay on MDA-MB-435 (setting [3]). The IC50 is 22 µM in the assay with MDA-MB-435 (MDA-MB-435, dihydrochloride); 15 µM in the assay on Colo-205 (Colo-205, dihydrochloride); 530 nM and 520 nM on cdk4/cyclin D1; 22 µM in the assay on HT-29 (HT-29, dihydrochloride); 17 µM in the assay on A549 (A549, dihydrochloride).
For the compound `N[C@H]1CC[C@H](Nc2nc(NC3CCN(Cc4ccccc4Cl)CC3)c3ncn(C4CCCC4)c3n2)CC1` [Example 43, 2-[Trans-(4-aminocyclohexyl)amino]-6-[4-(1-(2-chlorobenzyl))piperidinylamino]-9-cyclopentylpurine], the IC50 on cdk2/cyclin E is 150 nM and 200 nM; in the assay with DMS-114 (DMS-114), 0.41 µM; in the assay on DMS-114 (Homo sapiens, DMS-114, DMS-114) it was 0.43 µM; with MDA-MB-435 (setting [3]), 0.33 µM; in the assay with MDA-MB-435 (MDA-MB-435) it was 0.57 µM; with Colo-205 (Colo-205), 0.23 µM. The IC50 with Colo-205 (setting [1]) is 0.28 µM; in the assay on DU145 (DU145) it was 0.32 µM; in the assay on DU145 (Homo sapiens, DU-145, DU145), 0.3 µM; on cdk4/cyclin D1, 3900 nM and 7700 nM; with MDA-MB-231 (setting [2]), 0.37 µM; with MDA-MB-231 (MDA-MB-231), 0.43 µM. Also, the IC50 in the assay on A549 (A549) amounted to 0.23 µM; in the assay with A549 (Homo sapiens, A549, A549), 0.25 µM.
